Measurements: publication PMC12686126, “LL‐37 Inhibits TMPRSS2‐Mediated S2' Site Cleavage and SARS‐CoV‐2 Infection but Not Omicron Variants” (Cell Proliferation, 2025)
“Also recorded” adds a separate entry of the source. Structures can show the parent of a compound that is named as a salt.

Assays:
SARS‐CoV‐2 = conditions: cited from earlier work
SARS‐CoV‐2 spike [1] = tested on: SARS‐CoV‐2 spike; set-up: species or system mouse (BALB/c); conditions: mouse, in vivo
[2] = tested on: SARS‐CoV‐2 spike pseudovirus (S1 and S2 subunits) attached to 293T‐A2 cells; format: cell-based
[3] = tested on: SARS‐CoV‐2 spike S2 subunit; format: binding; conditions: pH 9.6
BA.4/5 spike [4] = tested on: BA.4/5 spike; set-up: species or system mouse (BALB/c); conditions: mouse, in vivo
[5] = tested on: SARS‐CoV‐2 spike pseudovirus; format: cell-based
[6] = no reference given; cited from earlier work
BA.1 spike = format: cell-based, SARS‐CoV‐2 Omicron BA.1
Delta spike pseudovirus = format: cell-based, SARS‐CoV‐2 Delta
TLR3, TLR7, or TLR9 = conditions: binds DNA/RNA, elevates type I interferon response; ref [63], [64]; cited from earlier work
TMPRSS2 = TMPRSS2 activity measurement; format: cell-based, human; conditions: 293T‐T2 cells, 2 h at 37°C; Boc‐Phe‐Ser‐Arg‐MCA 100 μM, fluorescence 360/460 nm; LL‐37 0–20 μg/mL, CM and E64d 0–100 μM
Method: 293T‐T2 cells (5 × 10^4/well) in a black 96‐well flat‐bottom plate were treated for 2 h at 37°C with LL‐37 (0, 1, 5, 10, 20 μg/mL), camostat mesylate (0, 0.1, 0.5, 1, 5, 10, 50, 100 μM, MedChemExpress), or E64d (0, 0.1, 0.5, 1, 5, 10, 50, 100 μM, MedChemExpress). The peptide and inhibitors were prepared with DMEM free of FBS. To measure the proteolytic activity of TMPRSS2, the medium was replaced with 100 μL of DMEM free of FBS and phenol red and containing 100 μM of Boc‐Phe‐Ser‐Arg‐MCA (Peptide, Japan). The fluorescence intensity was measured after 2 h of incubation at 37°C using a microplate reader (Biotek, USA). The excitation/emission wavelengths were 360/460 nm. The values were expressed as a percent of fluorescence intensity relative to the control. Camostat mesylate and E64d were used as the positive and negative controls respectively. All procedures were carried out in the dark.

Beta spike pseudovirus = format: cell-based, SARS‐CoV‐2 Beta
[7] = tested on: receptor binding domain (RBD) of spike S1 and the ACE2 receptor; conditions: by binding to the RBD and/or ACE2; ref [36], [37], [41], [42]; cited from earlier work
BA.1 spike pseudovirus = format: cell-based, SARS‐CoV‐2 Omicron BA.1
Delta spike = format: cell-based, SARS‐CoV‐2 Delta
[8] = ref [44]; cited from earlier work
FPR‐2 receptor = conditions: leading to immunosuppression; ref [67], [68]; cited from earlier work
BA.4/5 spike [9] = format: cell-based, SARS‐CoV‐2 Omicron BA.4/5
[10] = tested on: SARS‐CoV‐2 spike pseudovirus; format: cell-based; remark: listed apart in the source
[11] = tested on: BA.1 spike pseudovirus (S1 and S2 subunits) attached to 293T‐A2 cells; format: cell-based, SARS‐CoV‐2 Omicron BA.1
[12] = tested on: BA.2.12.1 spike pseudovirus; format: cell-based, SARS‐CoV‐2 Omicron BA.2.12.1
[13] = tested on: NF‐kB p50 and p65 subunits; conditions: leading to immunosuppression; ref [67], [68]; cited from earlier work
[14] = tested on: BA.4/5 spike pseudovirus (S1 and S2 subunits) attached to 293T‐A2 cells; format: cell-based, SARS‐CoV‐2 Omicron BA.4/5
FPRL‐1 and CXCR2 = conditions: receptors involved in chemotaxis of monocytes, neutrophils and lymphocytes; ref [65], [66]; cited from earlier work
Delta spike S2 subunit = format: cell-based, SARS‐CoV‐2 Delta
[15] = tested on: 293T‐A2 and 293T‐Mock cell membranes; format: cell-based; conditions: 293T-A2 vs 293T-Mock cells treated 2 h with LL-37; western blot (Figure S4A)
SARS‐CoV‐2 spike [16] = tested on: SARS‐CoV‐2 spike; set-up: species or system mouse (BALB/c); conditions: mouse, in vivo; remark: listed apart in the source
BA.4/5 spike pseudovirus = format: cell-based, SARS‐CoV‐2 Omicron BA.4/5
SARS‐CoV‐2 spike [17] = format: cell-based
BA.2 spike pseudovirus = format: cell-based, SARS‐CoV‐2 Omicron BA.2
BA.4/5 spike S2 subunit = format: cell-based, SARS‐CoV‐2 Omicron BA.4/5
[18] = tested on: SARS‐CoV‐2 spike S1 and S2 subunits; format: binding
BA.3 spike pseudovirus = format: cell-based, SARS‐CoV‐2 Omicron BA.3
BA.1 spike S2 subunit = format: cell-based, SARS‐CoV‐2 Omicron BA.1
S2 subunit of BA.1 spike = format: binding, SARS‐CoV‐2 Omicron BA.1
BA.4/5 spike [19] = tested on: BA.4/5 spike; set-up: species or system mouse (BALB/c); conditions: mouse, in vivo; remark: listed apart in the source
[20] = tested on: SARS‐CoV‐2 spike S2 subunit; format: cell-based
[21] = tested on: SARS‐CoV‐2 spike pseudovirus; format: cell-based; remark: listed apart in the source

Compound: COC(=O)C[C@](O)(CCCC(C)(C)O)C(=O)O[C@@H]1C(OC)=C[C@]23CCCN2CCc2cc4c(cc2[C@H]13)OCO4 [homoharringtonine]
- inhibition of SARS‐CoV‐2 entry and replication (SARS‐CoV‐2): high inhibition

Compound: O=C(CC1NCCCC1O)Cn1cnc2cc(Br)c(Cl)cc2c1=O (stereo not shown) [halofuginone]
- inhibition of SARS‐CoV‐2 entry and replication (SARS‐CoV‐2): high inhibition

Compound: LLGDFFRKSKEKIGKEFKRIVQRIKDFLRNLVPRTES [LL‐37]
- IgM responses and titers (SARS‐CoV‐2 spike [1]): elevated IgM responses and titers
- plasma membrane‐attached spike (S1 and S2 subunits) [2]: equal quantity
- binding of S2 subunit to immobilised LL‐37 [3]: much stronger binding
- IgM responses and titers (BA.4/5 spike [4]): no difference and low levels to background
- prevention of pseudovirus entry [5]: prevented; also recorded: not if added 2 h post infection (hpi) and 4 hpi
- overall positive net charge [6]: +6
- inhibition of cell–cell fusion (BA.1 spike): compromised inhibition
- inhibition of pseudovirus entry (Delta spike pseudovirus): significantly inhibit
- effect on TLR signalling (TLR3, TLR7, or TLR9): augment signalling via TLR3, TLR7, or TLR9
- suppression of cellular TMPRSS2 activity (TMPRSS2): not LL‐37 or E64d suppressed
- inhibition of pseudovirus entry (Beta spike pseudovirus): significantly inhibit
- block of RBD–ACE2 interaction [7]: block the interaction
- inhibition of pseudovirus entry (BA.1 spike pseudovirus): inhibitory effects were compromised
- inhibition of cell–cell fusion (Delta spike): inhibited
- inhibition of fusion, pretreatment vs treatment during infection (Delta spike; 10 μg/mL): stronger inhibition of fusion than treatment during infection
- attachment to lipid bilayer [8]: can attach to lipid bilayer via the C‐terminal VPRTES tail
- receptor interaction (FPR‐2 receptor): interact with the FPR‐2 receptor
- inhibition of cell–cell fusion (BA.4/5 spike [9]): compromised inhibition
- reduction of RLU caused by LL‐37 with endosomal inhibitor [10]: no significant difference
- plasma membrane‐attached spike (S1 and S2 subunits) [11]: equal quantity
- inhibition of pseudovirus entry [12]: inhibitory effects were compromised
- prevention of NF‐kB translocation [13]: prevent the translocation of NF‐kB p50 and p65 subunits
- plasma membrane‐attached spike (S1 and S2 subunits) [14]: equal quantity
- receptor binding (FPRL‐1 and CXCR2): directly bind with receptors such as FPRL‐1 and CXCR2
- generation of S2' fragment (Delta spike S2 subunit): consistent result with that of SARS‐CoV‐2
- LL‐37 attachment to cell membrane [15]: could attach to the cell membrane independent of the ACE2 expression
- IgG responses (SARS‐CoV‐2 spike [16]): enhanced
- IgG responses and titers (SARS‐CoV‐2 spike [16]): no significant difference
- inhibition of pseudovirus entry (BA.4/5 spike pseudovirus): inhibitory effects were compromised
- inhibition of cell–cell fusion (SARS‐CoV‐2 spike [17]): inhibited
- inhibition of fusion, pretreatment vs treatment during infection (SARS‐CoV‐2 spike [17]; 10 μg/mL): stronger inhibition of fusion than treatment during infection
- inhibition of pseudovirus entry (BA.2 spike pseudovirus): inhibitory effects were compromised
- generation of S2' fragment (BA.4/5 spike S2 subunit): did not significantly reduce
- spike subunit bound to plasma membrane facilitated by LL‐37 [18]: S2 subunit rather than the S1 subunit
- spike subunits bridged by LL‐37 to plasma membranes [18]: bridged more S2 subunits than S1 subunits
- inhibition of pseudovirus entry (BA.3 spike pseudovirus): inhibitory effects were compromised
- generation of S2' fragment (BA.1 spike S2 subunit): did not significantly reduce
- binding of S2 subunit to immobilised LL‐37 (S2 subunit of BA.1 spike): much lower binding
- IgG responses and titers (BA.4/5 spike [19]): no difference and low levels to background
- generation of S2' fragment [20]: remarkably reduced

Compound: KRKSFDGFKELILKGRQEIKFKRDIFLVNLRETRPSV [KR‐37, reference compound]
- inhibition of cell–cell fusion (BA.1 spike): showed no inhibition
- inhibition of cell–cell fusion (Delta spike): showed no inhibition
- inhibition of cell–cell fusion (BA.4/5 spike [9]): showed no inhibition
- inhibition of cell–cell fusion (SARS‐CoV‐2 spike [17]): showed no inhibition

Compound: CN(C)C(=O)COC(=O)Cc1ccc(OC(=O)c2ccc(NC(=N)N)cc2)cc1 [CM, camostat mesylate, reference compound]
- reduction of pseudovirus‐induced RLU [21]: about 60%
- suppression of cellular TMPRSS2 activity (TMPRSS2): suppressed cellular TMPRSS2 activity at sub‐micromolar concentrations
- antiviral activity against SARS‐CoV‐2 (SARS‐CoV‐2): shows antiviral activity against SARS‐CoV‐2

Compound: CNC(=O)[C@@H](NC(=O)[C@H](CC(C)C)[C@H](O)C(=O)NO)C(C)(C)C [marimastat, reference compound]
- reduction of pseudovirus‐induced RLU [21]: ~25%
- inhibition of SARS‐CoV‐2‐induced membrane fusion (SARS‐CoV‐2): inhibitory activity against SARS‐CoV‐2‐induced membrane fusion at sub‐micromolar levels

Compound: α1‐antitrypsin
- inhibition of SARS‐CoV‐2 entry and replication (SARS‐CoV‐2): high inhibition
